According to publication PMC9495854, “Novel Phenothiazine/Donepezil-like Hybrids Endowed with Antioxidant Activity for a Multi-Target Approach to the Therapy of Alzheimer’s Disease” (Antioxidants, 2022):
Marks after values point to notes of the source that are not given here.

Assays:
[1] = DPPH radical scavenging assay; conditions: DPPH 100 µM in methanol, 30 min
Description: A previously reported method (Blois) with some modifications (Mishra, Ojha, & Chaudhury, 2012) was used to carry out the DPPH assay in 96-well microtiter plates. Each tested compound was dissolved in methanol, after which a freshly prepared solution of DPPH in methanol (100 µM final concentration) was added. Following vigorous stirring, each mixture was left in the dark for 30 min at room temperature, after which absorbance values for each well were read at 520 nm using a spectrophotometric plate reader (VICTOR^3 V multilabel plate reader, PerkinElmer). Antioxidant activity was determined as RSA% (radical scavenging activity). The value was calculated using following equation: RSA% = 100 × [(Ao − Ai)/Ao], where Ao and Ai represent DPPH absorbance in absence or in presence of antioxidant, respectively. Antiradical curves for calculating the EC50 values were obtained by testing each compound at several concentrations. Values of all parameters are expressed as mean ± SEM of at least three independent measurements in triplicate.

[2] = biological target: T1, hBChE (Homo sapiens, UniProt P06276); assay: biochemical; conditions: mean ± SEM
T1 construct: purchased
T1 sequence (P06276 29-602): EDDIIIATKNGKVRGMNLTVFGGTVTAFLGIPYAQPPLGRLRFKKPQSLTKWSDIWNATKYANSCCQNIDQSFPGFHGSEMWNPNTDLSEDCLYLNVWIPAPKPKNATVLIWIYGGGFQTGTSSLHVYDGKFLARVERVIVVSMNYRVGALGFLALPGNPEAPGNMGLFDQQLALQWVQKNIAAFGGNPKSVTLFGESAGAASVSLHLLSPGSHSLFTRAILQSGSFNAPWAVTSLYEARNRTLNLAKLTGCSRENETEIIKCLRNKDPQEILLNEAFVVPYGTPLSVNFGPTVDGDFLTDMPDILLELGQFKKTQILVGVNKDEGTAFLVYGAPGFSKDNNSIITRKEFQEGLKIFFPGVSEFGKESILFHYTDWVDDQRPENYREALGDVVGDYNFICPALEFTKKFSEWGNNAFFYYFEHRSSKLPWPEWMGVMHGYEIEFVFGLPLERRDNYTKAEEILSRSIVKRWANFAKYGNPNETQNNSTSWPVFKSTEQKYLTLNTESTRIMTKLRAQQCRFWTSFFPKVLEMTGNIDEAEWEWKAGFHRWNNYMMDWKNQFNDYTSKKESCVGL
Description: (§1) The experiments were carried out using a properly modified version of Ellman’s spectrophotometric assay, adapted to a 96-well plate procedure. All reagents, including enzymes, were purchased from common suppliers. Incubation of the proper enzyme with the single compound at different concentrations was performed in clear flat-bottomed, 96-well plates (Greiner Bio-One GmbH, Frickenhausen, Germany) and in duplicate. […] Fluorescence measures were carried out using Tecan Infinite M1000 Pro multiplate reader (Tecan, Cernusco S.N., Italy). IC50 values and inhibition values were calculated as the mean of three independent experiments and are expressed as mean ± SEM [13].

[3] = system: HepG2 cells; assay: DCFH-DA cell-based antioxidant assay (H2O2-induced oxidation), HepG2; conditions: Homo sapiens, 1 h compound, 100 μM H2O2, read-out: DCFDH-DA IC50 ± SEM HepG2
Description: (§2) HepG2 cells were cultured in Eagle’s Minimum Essential Medium (MEM, Euroclone S.p.A., Pero, MI, Italy), supplemented with 10% Fetal Bovine Serum (FBS, Euroclone S.p.A., Pero, MI, Italy), 1% L-glutamine (Euroclone S.p.A., Pero, MI, Italy), 100 U/mL penicillin/streptomycin (Euroclone S.p.A., Pero, MI, Italy), 1% Non-Essential Amino Acids (NEAA, Euroclone S.p.A., Pero, MI, Italy). SH-SY5Y cells were grown in a 1:1 mixture of Dulbecco’s modified Eagle’s medium (DMEM)—high glucose (Euroclone S.p.A., Pero, MI, Italy) and Ham’s F12 Medium (Euroclone S.p.A., Pero, MI, Italy) supplemented with 10% FBS, 1% L-glutamine and 100 U/mL penicillin/streptomycin. For cell assays, cells were trypsinized using Trypsin-EDTA 1X in PBS (Euroclone S.p.A., Pero, MI, Italy).
(§3) According to a slightly modified procedure already reported in the literature, the generation of ROS was determined using an oxidation-sensitive fluorescent probe, 2′,7′-dichlorodihydrofluorescein diacetate (DCFH-DA, D6665; Sigma-Aldrich, St. Louis, MO, USA). Briefly, viable cells were seeded in a black 96-well cell culture plate (Costar, Sigma-Aldrich, St. Louis, MO, USA) and after 24 h were incubated with different concentrations (0.1–100 µM) of each compound for 1 h at 37 °C in 5% CO2. […] After washing using PBS, 100 μM H2O2 in medium without serum was added to each well and the cells were incubated for an additional 30 min. The formation of fluorescent dichlorofluorescein (DCF) due to oxidation of DCFH in the presence of ROS, was read at 530 nm using a microplate reader Tecan Infinite M1000 Pro (Tecan, Cernusco S.N., Italy) and DMSO medium was used for control cells. The results are expressed as mean ± SEM of at least three independent measurements in triplicate.

[4] = biological target: T2, hAChE (Homo sapiens, UniProt P22303); assay: biochemical; format: biochemical; conditions: mean ± SEM; for hAChE I% at 10 µM: inhibition at 10 µM
T2 construct: purchased
T2 sequence (P22303 32-614): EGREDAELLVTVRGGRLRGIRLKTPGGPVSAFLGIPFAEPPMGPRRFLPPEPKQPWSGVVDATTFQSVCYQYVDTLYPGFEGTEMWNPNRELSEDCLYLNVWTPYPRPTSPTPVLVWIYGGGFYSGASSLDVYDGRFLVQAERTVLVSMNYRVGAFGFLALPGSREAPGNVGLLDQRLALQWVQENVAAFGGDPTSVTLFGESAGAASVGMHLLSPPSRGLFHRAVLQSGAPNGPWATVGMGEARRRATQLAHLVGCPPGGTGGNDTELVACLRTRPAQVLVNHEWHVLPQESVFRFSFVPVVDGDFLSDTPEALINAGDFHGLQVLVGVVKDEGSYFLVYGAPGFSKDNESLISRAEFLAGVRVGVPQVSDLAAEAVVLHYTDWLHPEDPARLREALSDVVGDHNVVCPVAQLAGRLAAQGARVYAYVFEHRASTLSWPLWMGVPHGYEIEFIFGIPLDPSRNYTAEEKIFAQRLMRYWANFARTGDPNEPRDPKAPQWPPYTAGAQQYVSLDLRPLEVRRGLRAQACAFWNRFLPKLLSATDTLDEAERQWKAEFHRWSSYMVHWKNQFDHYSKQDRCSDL
Description: as §1

[5] = system: SH-SY5Y cells; assay: DCFH-DA cell-based antioxidant assay (H2O2-induced oxidation), SH-SY5Y; conditions: Homo sapiens, SHSY-5Y, 1 h compound, 100 μM H2O2, read-out: DCFDH-DA IC50 ± SEM SHSY-5Y
Description: as §2, §3

[6] = MTT cell viability assay, HepG2; format: cell-based; conditions: human, HepG2 cells; for IC50 at 1 h: HepG2, 1 h exposure; for IC50 at 24 h: HepG2, 24 h exposure, read-out: MTT cytotoxicity IC50 ± SEM HepG2 24 h
Description: as §2, with “Human hepatocellular liver carcinoma (HepG2) cell line and human neuroblastoma cell line, SH-SY5Y, were purchased from the American Type Culture Collection (ATCC, Manassas, VA, USA) and maintained at 37 °C in a humidified atmosphere (95% air and 5% carbon dioxide), and they were periodically screened for contamination. HepG2” for “HepG2”
HepG2 and SH-SY5Y cell viability was assessed as previously reported by using a conventional 3-(4,5-dimethylthiazol-2-yl)-2,5-diphenyltetrazolium bromide (MTT) assay. In brief, viable cells were seeded and grown for 24 h into a sterile 96-well cell culture cluster (Corning, Sigma-Aldrich, St. Louis, MO, USA) in a complete medium and maintained at 37 °C in a humidified atmosphere with 5% CO2. The cells were then added with different concentrations of each compound for a period of 1 h or 24 h. At the end, the culture medium was replaced by a solution of 0.5 mg/mL MTT (Sigma-Aldrich, St. Louis, MO, USA) in PBS. After 2 h of incubation at 37 °C in 5% CO2, the supernatant was carefully removed from each well, and the formazan crystals were dissolved in DMSO. The absorbance values were measured at 570 nm using Tecan Infinite M1000 Pro (Tecan, Cernusco S.N., Italy) and DMSO medium as blank solution. The results were reported as % cell viability = [optical density (OD) of tested compound/medium OD of control cells] × 100. The results are expressed as mean ± SEM of at least three independent measurements in triplicate.

Question: With O=C(NCC1CCN(Cc2ccccc2)CC1)c1ccc2c(c1)Nc1ccccc1S2 [Compound 11a, N-((1-Benzylpiperidin-4-yl)methyl)-10H-phenothiazine-2-carboxamide] as the molecule, how does the “EC50 (μmol/μmol of DPPH ± SEM)” value [1] read?
Answer: 0.082 ± 0.007 μmol/μmol of DPPH

Question: And the IC50 [2]?
Answer: 2.16 ± 0.27 µM

Question: What about the IC50 [3] of the same molecule?
Answer: 8.31 ± 1.4 µM

Question: What about the IC50 [4] of the same molecule?
Answer: 0.597 ± 0.064 µM

Question: And the IC50 [5]?
Answer: 14.1 ± 0.6 µM

Question: And the IC50 at 1 h [6]?
Answer: > 100 µM

Question: What about the IC50 at 24 h [6] of the same molecule?
Answer: 62.7 ± 0.7 µM

Question: Which “EC50 (μmol/μmol of DPPH ± SEM)” value [1] does the source give for O=C(NCC1CCN(Cc2ccccc2Cl)CC1)c1ccc2c(c1)Nc1ccccc1S2 [Compound 11b, N-((1-(2-Chlorobenzyl)piperidin-4-yl)methyl)-10H-phenothiazine-2-carboxamide] here?
Answer: 0.139 ± 0.014 μmol/μmol of DPPH

Question: And the IC50 [2]?
Answer: 1.98 ± 0.12 µM

Question: And the IC50 [3]?
Answer: 55.3 ± 1.1 µM

Question: And the “hAChE I% at 10 µM” value [4]?
Answer: 52% ± 1 ^b

Question: What about the IC50 [5] of the same molecule?
Answer: 1.32 ± 0.2 µM

Question: What about the IC50 at 1 h [6] of the same molecule?
Answer: > 100 µM

Question: And the IC50 at 24 h [6]?
Answer: 27.7 ± 0.4 µM

Question: Which results are given for Cc1ccccc1CN1CCC(CNC(=O)c2ccc3c(c2)Nc2ccccc2S3)CC1 [Compound 11c, N-((1-(2-Methylbenzyl)piperidin-4-yl)methyl)-10H-phenothiazine-2-carboxamide]?
Answer: EC50 (μmol/μmol of DPPH ± SEM) [1]: 0.117 ± 0.013 μmol/μmol of DPPH; IC50 [2]: 1.47 ± 0.03 µM; IC50 [3]: 17.6 ± 0.5 µM; hAChE I% at 10 µM [4]: 44% ± 2 ^b; IC50 [5]: 2.11 ± 0.4 µM; IC50 at 1 h [6]: > 100 µM; IC50 at 24 h [6]: 35.2 ± 1.1 µM

Question: Which “EC50 (μmol/μmol of DPPH ± SEM)” value [1] does the source give for O=C(NCC1CCN(Cc2ccccc2F)CC1)c1ccc2c(c1)Nc1ccccc1S2 [Compound 11d, N-((1-(2-Fluorobenzyl)piperidin-4-yl)methyl)-10H-phenothiazine-2-carboxamide] here?
Answer: 0.126 ± 0.014 μmol/μmol of DPPH

Question: What about the IC50 [2] of the same molecule?
Answer: 1.2 ± 0.01 µM

Question: And the IC50 [3]?
Answer: 1.82 ± 0.6 µM

Question: And the IC50 [4]?
Answer: 1.75 ± 0.11 µM

Question: What about the IC50 [5] of the same molecule?
Answer: 1.43 ± 0.5 µM

Question: What about the IC50 at 1 h [6] of the same molecule?
Answer: > 100 µM

Question: What about the IC50 at 24 h [6] of the same molecule?
Answer: 41 ± 0.2 µM

Question: What does the source list for COc1cccc(CN2CCC(CNC(=O)c3ccc4c(c3)Nc3ccccc3S4)CC2)c1 [Compound 11e, N-((1-(3-Methoxybenzyl)piperidin-4-yl)methyl)-10H-phenothiazine-2-carboxamide]?
Answer: EC50 (μmol/μmol of DPPH ± SEM) [1]: 0.104 ± 0.011 μmol/μmol of DPPH; hBChE I% at 10 µM ([2]; inhibition at 10 µM): 47% ± 1 ^b; IC50 [3]: 3.21 ± 0.5 µM; hAChE I% at 10 µM [4]: 22% ± 4 ^b; IC50 [5]: 1.12 ± 0.9 µM; IC50 at 1 h [6]: > 100 µM; IC50 at 24 h [6]: 14.9 ± 0.61 µM

Question: Which “EC50 (μmol/μmol of DPPH ± SEM)” value [1] does the source give for O=C(NCCN1CCN(Cc2ccccc2)CC1)c1ccc2c(c1)Nc1ccccc1S2 [Compound 12a, N-(2-(4-Benzylpiperazin-1-yl)ethyl)-10H-phenothiazine-2-carboxamide] here?
Answer: 0.182 ± 0.016 μmol/μmol of DPPH

Question: What about the IC50 [2] of the same molecule?
Answer: 2.02 ± 0.03 µM

Question: What about the IC50 [3] of the same molecule?
Answer: 1.13 ± 0.41 µM

Question: What about the IC50 [4] of the same molecule?
Answer: 0.943 ± 0.046 µM

Question: And the IC50 [5]?
Answer: 2.01 ± 0.61 µM

Question: And the IC50 at 1 h [6]?
Answer: > 100 µM

Question: And the IC50 at 24 h [6]?
Answer: 28.8 ± 0.42 µM

Question: Which “EC50 (μmol/μmol of DPPH ± SEM)” value [1] does the source give for O=C(NCCN1CCN(Cc2ccccc2Cl)CC1)c1ccc2c(c1)Nc1ccccc1S2 [Compound 12b, N-(2-(4-(2-Chlorobenzyl)piperazin-1-yl)ethyl)-10H-phenothiazine-2-carboxamide] here?
Answer: 0.122 ± 0.011 μmol/μmol of DPPH

Question: And the IC50 [3]?
Answer: 18.7 ± 0.2 µM

Question: And the IC50 [4]?
Answer: 1.85 ± 0.15 µM

Question: And the IC50 [5]?
Answer: 9.1 ± 1.42 µM

Question: And the IC50 at 1 h [6]?
Answer: > 100 µM

Question: And the IC50 at 24 h [6]?
Answer: > 100 µM

Question: With Cc1ccccc1CN1CCN(CCNC(=O)c2ccc3c(c2)Nc2ccccc2S3)CC1 [Compound 12c, N-(2-(4-(2-Methylbenzyl)piperazin-1-yl)ethyl)-10H-phenothiazine-2-carboxamide] as the molecule, how does the “EC50 (μmol/μmol of DPPH ± SEM)” value [1] read?
Answer: 0.145 ± 0.010 μmol/μmol of DPPH

Question: And the IC50 [2]?
Answer: 2.5 ± 0.06 µM

Question: And the IC50 [3]?
Answer: 4.21 ± 0.81 µM

Question: And the “hAChE I% at 10 µM” value [4]?
Answer: 56% ± 3 ^b

Question: What about the IC50 [5] of the same molecule?
Answer: 11.3 ± 0.21 µM

Question: And the IC50 at 1 h [6]?
Answer: > 100 µM

Question: And the IC50 at 24 h [6]?
Answer: > 100 µM

Question: For O=C(NCCN1CCN(Cc2ccccc2F)CC1)c1ccc2c(c1)Nc1ccccc1S2 [Compound 12d, N-(2-(4-(2-Fluorobenzyl)piperazin-1-yl)ethyl)-10H-phenothiazine-2-carboxamide], which “EC50 (μmol/μmol of DPPH ± SEM)” value [1] is on record?
Answer: 0.231 ± 0.026 μmol/μmol of DPPH

Question: And the IC50 [2]?
Answer: 4.33 ± 0.19 µM

Question: What about the IC50 [3] of the same molecule?
Answer: 14.6 ± 0.5 µM

Question: And the IC50 [4]?
Answer: 0.599 ± 0.112 µM

Question: And the IC50 [5]?
Answer: 11.7 ± 1.11 µM

Question: What about the IC50 at 1 h [6] of the same molecule?
Answer: > 100 µM

Question: And the IC50 at 24 h [6]?
Answer: 42.9 ± 1.81 µM

Question: With CC(=O)N1c2ccccc2Sc2ccc(C(=O)NCCN3CCN(Cc4ccccc4Cl)CC3)cc21 [Compound 13, 10-Acetyl-N-(2-(4-(2-chlorobenzyl)piperazin-1-yl)ethyl)-10H-phenothiazine-2-carboxamide] as the molecule, how does the IC50 [3] read?
Answer: 0.63 ± 0.1 µM

Question: What about the “hAChE I% at 10 µM” value [4] of the same molecule?
Answer: 48% ± 5 ^b

Question: And the IC50 [5]?
Answer: 1.22 ± 0.2 µM

Question: What about the IC50 at 1 h [6] of the same molecule?
Answer: > 100 µM

Question: What about the IC50 at 24 h [6] of the same molecule?
Answer: > 100 µM
